Laboratory results: PubChem BioAssay (NCI)
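Cells were grown in 96-well plates and exposed to each compound for 48 hours at five concentrations; endpoints were interpolated linearly between bracketing concentrations, or set to the highest concentration if not reached. Here, GI50 denotes the concentration required for 50% inhibition of growth. TGI is the concentration that stops growth completely.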

What was measured:
Test in all cases: DTP human tumour cell line panel, 48 h
NCI-H23 lung = test system: NCI-H23 lung
NCI-H460 lung = test system: NCI-H460 lung
NCI-H522 lung = test system: NCI-H522 lung
NCI/ADR-RES ovarian = test system: NCI/ADR-RES ovarian
OVCAR-3 ovarian = test system: OVCAR-3 ovarian
OVCAR-4 ovarian = test system: OVCAR-4 ovarian
OVCAR-5 ovarian = test system: OVCAR-5 ovarian
OVCAR-8 ovarian = test system: OVCAR-8 ovarian
PC-3 prostate = test system: PC-3 prostate
RPMI-8226 leukemia = test system: RPMI-8226 leukemia
RXF 393 renal = test system: RXF 393 renal
SF-268 CNS = test system: SF-268 CNS
SF-295 CNS = test system: SF-295 CNS
SF-539 CNS = test system: SF-539 CNS
SK-MEL-2 melanoma = test system: SK-MEL-2 melanoma
SK-MEL-28 melanoma = test system: SK-MEL-28 melanoma
SK-MEL-5 melanoma = test system: SK-MEL-5 melanoma
SK-OV-3 ovarian = test system: SK-OV-3 ovarian
SN12C renal = test system: SN12C renal
SNB-19 CNS = test system: SNB-19 CNS
SNB-75 CNS = test system: SNB-75 CNS
SR leukemia = test system: SR leukemia
SW-620 colon = test system: SW-620 colon
T-47D breast = test system: T-47D breast
TK-10 renal = test system: TK-10 renal
U251 CNS = test system: U251 CNS
UACC-257 melanoma = test system: UACC-257 melanoma
UACC-62 melanoma = test system: UACC-62 melanoma
UO-31 renal = test system: UO-31 renal

O=C(Nc1ccc(Cl)cc1)c1ccc([N+](=O)[O-])o1
TGI (NCI-H23 lung): 4.54 µM
GI50 (NCI-H460 lung): 2.22 µM
TGI (NCI-H460 lung): 5.55 µM
GI50 (NCI-H522 lung): 0.642 µM
TGI (NCI-H522 lung): 1.76 µM
GI50 (NCI/ADR-RES ovarian): 2.55 µM
TGI (NCI/ADR-RES ovarian): 11.4 µM
GI50 (OVCAR-3 ovarian): 2.92 µM
TGI (OVCAR-3 ovarian): 9.4 µM
GI50 (OVCAR-4 ovarian): 2.11 µM
TGI (OVCAR-4 ovarian): 8.31 µM
GI50 (OVCAR-5 ovarian): 2.37 µM
TGI (OVCAR-5 ovarian): 5.41 µM
GI50 (OVCAR-8 ovarian): 2.99 µM
TGI (OVCAR-8 ovarian): 12.8 µM
GI50 (PC-3 prostate): 2.35 µM
TGI (PC-3 prostate): > 30.3 µM
GI50 (RPMI-8226 leukemia): 3.72 µM
TGI (RPMI-8226 leukemia): 38.1 µM
GI50 (RXF 393 renal): 1.34 µM
TGI (RXF 393 renal): 3.42 µM
GI50 (SF-268 CNS): 2.98 µM
TGI (SF-268 CNS): 11.8 µM
GI50 (SF-295 CNS): 3.29 µM
TGI (SF-295 CNS): 12.3 µM
GI50 (SF-539 CNS): 2.22 µM
TGI (SF-539 CNS): 4.9 µM
GI50 (SK-MEL-2 melanoma): 2.76 µM
TGI (SK-MEL-2 melanoma): 6.53 µM
GI50 (SK-MEL-28 melanoma): 1.78 µM
TGI (SK-MEL-28 melanoma): 3.79 µM
GI50 (SK-MEL-5 melanoma): 3.42 µM
TGI (SK-MEL-5 melanoma): 13.2 µM
GI50 (SK-OV-3 ovarian): 2.64 µM
TGI (SK-OV-3 ovarian): 7.27 µM
GI50 (SN12C renal): 1.68 µM
TGI (SN12C renal): 4.12 µM
GI50 (SNB-19 CNS): 2.6 µM
TGI (SNB-19 CNS): 10.6 µM
GI50 (SNB-75 CNS): 1.63 µM
TGI (SNB-75 CNS): 5.38 µM
GI50 (SR leukemia): 0.553 µM
TGI (SR leukemia): 16.5 µM
GI50 (SW-620 colon): 1.12 µM
TGI (SW-620 colon): 2.68 µM
GI50 (T-47D breast): 4.42 µM
TGI (T-47D breast): 23.2 µM
GI50 (TK-10 renal): 2.4 µM
TGI (TK-10 renal): 5.32 µM
GI50 (U251 CNS): 1.36 µM
TGI (U251 CNS): 2.87 µM
GI50 (UACC-257 melanoma): 1.97 µM
TGI (UACC-257 melanoma): 5.25 µM
GI50 (UACC-62 melanoma): 1.46 µM
TGI (UACC-62 melanoma): 3.1 µM
GI50 (UO-31 renal): 1.38 µM
TGI (UO-31 renal): 2.96 µM
